Measurements published in US20110166223A1, “METHODS OF INHIBITING FGFR3 SIGNALING” (CEDARS-SINAI MEDICAL CENTER, priority 2008, published 2011).

Key:
[1] = system: FGF2/FGFR3-mediated growth-arrest of rat chondrosarcoma (RCS) cells
Excerpt: In this assay, the FGF2/FGFR3-mediated growth-arrest of rat chondrosarcoma (RCS) cells is used as a reporter, thus allowing for elimination of toxic compounds as false-positive hits (Krejci, et al., Invest New Drugs 2007, 25: 391-395).
Rat chondrosarcoma chondrocytes (RCS), chinese hamster ovary (CHO) cells and MM cell lines OPM2 and KMS11 were propagated in DMEM, Opti-MEM or RPMI media (Gibco, Gaitherbsburg, Md.), supplemented with 10% fetal bovine serum (Atlanta Biological, Nordeross, Ga.) and antibiotics. […] For the RCS growth-arrest experiments shown at FIGS. 1 and 4c, 1×10^4 RCS chondrocytes were seeded in 24-well tissue culture plates (Costar, Cambridge, Mass.), treated as indicated for 72 hours, and counted. FGF2 was obtained from R&D Systems (Minneapolis, Minn.); C-natriuretic peptide, suramin, NF023 and NF449 were from Calbiochem (San Diego, Calif.).

[2] = target: T1, recombinant tyrosine kinase (TK) domain of FGFR3 (Homo sapiens, UniProt P22607); assay: Cell-free FGFR3 kinase assay with STAT1 as substrate; type: biochemical; settings: added directly to the kinase reaction; FIG. 4
T1 construct: recombinant tyrosine kinase (TK) domain of FGFR3 (Glu-322-Thr-806; Cell Signaling); purchased Cell Signaling
T1 sequence (P22607 322-806): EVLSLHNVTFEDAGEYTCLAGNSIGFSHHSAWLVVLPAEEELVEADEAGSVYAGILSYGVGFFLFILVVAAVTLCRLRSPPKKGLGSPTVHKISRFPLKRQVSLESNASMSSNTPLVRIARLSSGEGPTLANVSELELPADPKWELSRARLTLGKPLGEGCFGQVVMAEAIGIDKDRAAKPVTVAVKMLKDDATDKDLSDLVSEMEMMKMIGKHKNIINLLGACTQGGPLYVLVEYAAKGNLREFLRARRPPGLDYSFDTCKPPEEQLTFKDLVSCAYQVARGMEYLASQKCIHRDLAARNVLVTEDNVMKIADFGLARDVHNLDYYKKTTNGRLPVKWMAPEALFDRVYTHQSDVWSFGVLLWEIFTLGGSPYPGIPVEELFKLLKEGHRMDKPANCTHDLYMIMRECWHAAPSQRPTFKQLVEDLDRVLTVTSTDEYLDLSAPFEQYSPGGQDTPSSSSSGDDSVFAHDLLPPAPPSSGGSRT
Procedure: FIG. 4, in accordance with an embodiment herein, depicts 4,4′,4″,4′″-[carbonyl-bis[imino-5,1,3-benzenetriyl bis-{carbonylimino}]]tetrakis-{benzene-1,3-disulfonic acid} inhibits FGFR3 activity in a kinase assay. (a, b) Cell-free kinase assays were carried out as described herein, with recombinant tyrosine kinase (TK) domain of FGFR3 as a kinase, recombinant STAT1 as a substrate, and NF449 added directly to the kinase reaction. FGFR3-mediated phosphorylation of STAT1 was detected by WB with P-STAT1 (Y^701) antibody. The membrane was reprobed with FGFR3 and STAT1 antibodies to control for kinase and substrate quantity. The sample with ATP omitted serves as a negative control for the kinase reaction. Note the FGFR3-mediated phosphorylation of STAT1 is inhibited by 4,4′,4″,4′″-[carbonyl-bis[imino-5,1,3-benzenetriyl bis-{carbonylimino}]]tetrakis-{benzene-1,3-disulfonic acid}. The P-STAT1 and STAT1 signal was quantified by densitometry and expressed as a ratio between P-STAT1 and STAT1 signal for each given sample (b, lower graph). (c) The FGFR3 kinase assay was carried-out as described in (a) with 4,4′,4″,4′″-[carbonyl-bis[imino-5,1,3-benzenetriyl bis-{carbonylimino}]]tetrakis-{benzene-1,3-disulfonic acid}, 8,8′-[carbonylbis[imino-3,1-phenylenecarbonylimino{4-methyl-3,1-phenylene}carbonylimino]]bis-1,3,5-naphthalenetrisulfonic acid or 8,8′-[carbonylbis[imino-3,1-phenylene]]bis-{1,3,5-naphthalenetrisulfonic acid} added to the kinase reaction. Note the differential effects of 8,8′-[carbonylbis[imino-3,1-phenylenecarbonylimino{4-methyl-3,1-phenylene}carbonylimino]]bis-1,3,5-naphthalenetrisulfonic acid and 8,8′-[carbonylbis[imino-3,1-phenylene]]Bis-{1,3,5-naphthalenetrisulfonic acid} on the FGFR3-mediated phosphorylation of STAT1, which corresponds to their activity in the RCS growth-arrest experiment (lower graph). Data are an average from four wells with the indicated standard deviation. Statistically significant rescue of the growth arrest is indicated (Student's I-test; *-p<0.01).
OPM2 and KMS11 cells were lysed in ice-cold immunoprecipitation buffer (50 mM Tris-HCl pH 7.4, 150 mM NaCl, 0.5% NP-40, 1 mM EDTA, 25 mM NaF) supplemented with proteinase inhibitors and 10 mM sodium orthovanadate. Protein samples were resolved by SDS-PAGE and transferred onto a PVDF membrane. The following antibodies were used: Erk1/2, P-Erk1/2^T202/Y204, STAT1, P-STAT1^Y701 (Cell Signaling, Beverly, Mass.) and FGFR3 (Santa Cruz Biotechnology, Santa Cruz, Calif.). Western blotting signal was quantified by determining the integrated optical density (I.O.D.) of a given band using Scion Image software (Scion Corporation, Frederick, Mass.). Immunoprecipitations and FGFR3 kinase assays were performed as described. Briefly, the pRK7 vector encoding C-terminally FLAG-tagged K650E-FGFR3 was transfected into CHO cells using FuGENE6 reagent according to the manufacturer's protocol (Roche Applied Science, Indianapolis, Ind.). 48 hours after transfection, cells were treated with 20 ng/ml of FGF2 for 15 minutes and K650E-FGFR3 was immunoprecipitated from 800 μg of cell lysate protein using 4 μg of anti-FLAG antibody (Sigma-Aldrich, St. Louis, Mo.). Cells transfected with a plasmid encoding green fluorescent protein (pCCEY) serve as a negative control for the immunoprecipitation. Immunocomplexes were washed two times with kinase buffer (60 mM HEPES-NaOH pH 7.5, 3 mM MgCl2, 3 mM MnCl2, 3 μM Na3VO4, 1.2 mM dithiothreitol), and the kinase reactions were performed for 30 minutes at 30° C. in the presence of 2.5 μg of polyethylene glycol, 10 μM ATP, 300 ng of recombinant STAT1 (Active Motif, Carlsbad, Calif.) as a substrate, and NF449 added directly to the kinase reaction. Kinase assays utilizing recombinant tyrosine kinase (TK) domain of FGFR3 (Glu-322-Thr-806; Cell Signaling) were carried-out similarly, with 300 ng of kinase used in 50 μl reaction, and suramin, NF449 and NF023 added directly to the kinase reaction. […]

[3] = target: T1, recombinant tyrosine kinase (TK) domain of FGFR3; settings: previous work [9, 12]; cited from earlier work
[4] = system: FGF2/FGFR3-mediated growth-arrest of rat chondrosarcoma (RCS) cells; settings: previous work [9, 12]; cited from earlier work

Compound: Cc1ccc(C(=O)Nc2ccc(S(=O)(=O)O)c3cc(S(=O)(=O)O)cc(S(=O)(=O)O)c23)cc1NC(=O)c1cccc(NC(=O)Nc2cccc(C(=O)Nc3cc(C(=O)Nc4ccc(S(=O)(=O)O)c5cc(S(=O)(=O)O)cc(S(=O)(=O)O)c45)ccc3C)c2)c1 [suramin, 8,8′-[carbonylbis[imino-3,1-phenylenecarbonylimino{4-methyl-3,1-phenylene}carbonylimino]]bis-1,3,5-naphthalenetrisulfonic acid, reference compound]
- effect on FGF2/FGFR3-mediated growth arrest (in words) ([1]; RCS chondrocytes, FIGS. 1, 4c): reversed the FGF2/FGFR3-mediated growth arrest
- effect on FGFR3 kinase activity (in words) [2]: inhibited FGFR3 kinase activity

Compound: C-natriuretic peptide [CNP, reference compound]
- rescue of the FGF2-mediated RCS growth-arrest ([1]; FIG. 1b, each agent alone, 72 hours): ~23%

Compound: Cc1c[nH]c(/C=C2\C(=O)Nc3ccccc32)c1CCC(=O)O [SU5402]
- concentration range inhibiting FGFR3 kinase activity [3]: 2 to 20 µM
- concentration range inhibiting RCS growth arrest [4]: 2 to 20 µM
